Assay results as given in patent EP2295560A1, “Directed evolution of arginine deiminase for increased activity at physiological pH” (priority 2009, dated 2011).

Biological target: Pseudomonas plecoglossicida arginine deiminase (PpADI) variant M2 (K5T D44E H404R) (Pseudomonas plecoglossicida, UniProt A7LKB0, D44E/H404R/K5T)
Assay: Determination of kcat and Km (citrulline colorimetric assay, purified enzyme)
Type: biochemical, Pseudomonas plecoglossicida CGMCC2039
Conditions: pH 7.4, conversion of arginine to citrulline, compared to wild type
Description: The kcat and Km values were determined from initial velocity data measured as a function of substrate concentration. Enzyme reaction was carried out at 37°C in a water bath. After 10 min preincubation at 37"C, the enzyme reaction was initiated by addition of purified enzyme (50 µl, 0.2-0.5 µM) to the substrate solution (200 µl, 0.2 mM to 10 mM of arginine, 0.5 M phosphate buffer, pH 7.4) in deep well plates. The reaction mixture was incubated (37°C) and every two minutes reaction mixture (30 µl) of each well was transferred to acid-ferric solution (30 µl) to stop the enzyme reaction. The color development was subsequently performed in 96-well PCR plate. Ferric-acid solution (90 µl) and DAM-TSC solution (15 µl) were added to each well. The 96-well PCR plate was then incubated (70°C, 30 min) in thermal cycler (Eppendorf Mastercyler gradient) for color development, followed by incubation in ice water to stop color development. Absorbance was measured at 530 nm using a microtiter plate reader (SPECTROstar Omega, BMG LABTECH, Offenburg, Germany). […] The kcat was calculated from the ratio of Vmax, and enzyme concentration. […]

Pseudomonas plecoglossicida arginine deiminase (PpADI) variant M2 (K5T D44E H404R), sequence (A7LKB0 whole entry D44E/H404R/K5T): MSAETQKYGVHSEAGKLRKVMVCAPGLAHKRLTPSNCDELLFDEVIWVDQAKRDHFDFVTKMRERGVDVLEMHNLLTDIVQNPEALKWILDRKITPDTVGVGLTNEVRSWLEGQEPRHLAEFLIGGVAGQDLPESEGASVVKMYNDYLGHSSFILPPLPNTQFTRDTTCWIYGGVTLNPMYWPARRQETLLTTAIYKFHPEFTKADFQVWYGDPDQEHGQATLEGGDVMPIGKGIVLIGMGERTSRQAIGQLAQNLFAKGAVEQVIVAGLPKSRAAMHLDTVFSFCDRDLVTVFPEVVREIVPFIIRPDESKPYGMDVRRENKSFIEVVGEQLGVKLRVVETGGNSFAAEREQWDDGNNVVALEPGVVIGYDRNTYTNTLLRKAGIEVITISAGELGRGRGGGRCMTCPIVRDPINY

## N=C(N)NCCC[C@H](N)C(=O)O [arginine]
  kcat, fold higher than wild type PpADI: 4 fold
